Active and inactive are the calls of the source. The calls are words filed in the database; no cut-off is given here.
Tests used:
[1] = Octanol-water partition coefficient, log P of the compound at 23 degC by shake flask method; assay type: physicochemical
Periplaneta americana [2] = experiment: Insecticidal activity against Periplaneta americana (American cockroach) assessed as neuroblocking concentration; assay type: functional
Periplaneta americana [3] = experiment: Insecticidal activity against Periplaneta americana (American cockroach) assessed as killing compound injected into abdomen of cockroach after 24 hr in presence of 50 ug piperonyl butoxide oxidative metabolism inhibitor and 50 ug propargyl propyl benzenephosphonate inhibitor of hydrolytic; assay type: functional
Periplaneta americana [4] = experiment: Insecticidal activity against Periplaneta americana (American cockroach) assessed as killing compound injected into abdomen of cockroach after 24 hr; assay type: functional
Periplaneta americana [5] = experiment: Insecticidal activity against Periplaneta americana (American cockroach) assessed as killing compound injected into abdomen of cockroach after 24 hr in presence of 50 ug propargyl propyl benzenephosphonate inhibitor of hydrolytic metabolism of tetramethrin pyrethroid; assay type: functional
Periplaneta americana [6] = experiment: Insecticidal activity against Periplaneta americana (American cockroach) assessed as killing compound injected into abdomen of cockroach after 24 hr in presence of 50 ug piperonyl butoxide oxidative metabolism inhibitor; assay type: functional
Periplaneta americana [7] = experiment: Insecticidal activity against Periplaneta americana (American cockroach) assessed as increase in frequency of impulses in nerve preparation measured immediately after treatment at 10^-5 M by electrophysiological method; assay type: functional, organism-based

Compound | logP [1] | Activity (Periplaneta americana [2]) | MLD (Periplaneta americana [3]) | MLD (Periplaneta americana [4]) | MLD (Periplaneta americana [5]) | MLD (Periplaneta americana [6]) | Activity (Periplaneta americana [7])
CCN/C(=N\C#N)NCc1ccc(Cl)nc1 | 0.86 | >170 µM | >170 nmol | >170 nmol | – | – | –
CN(Cc1ccc(Cl)nc1)/C(N)=N/C#N | 0.71 | 9.6 µM | 1.2 nmol | 22 nmol | 0.71 nmol | 14 nmol | –
O=[N+]([O-])/N=C1\NCCN1Cc1ccc(Cl)nc1 [IMIDACLOPRID] | 0.6 | 2.3 µM | 0.07 nmol | 1.1 nmol | 0.19 nmol | 0.55 nmol | –
CN/C(=N\C#N)NCc1ccc(Cl)nc1 | 0.84 | 110 µM | 8.9 nmol | >180 nmol | 18 nmol | 180 nmol | Active
CN(C)/C(=N\C#N)NCc1ccc(Cl)nc1 | 0.66 | >170 µM | 140 nmol | >170 nmol | – | – | –
CN/C(=N\C#N)N(C)Cc1ccc(Cl)nc1 | 0.78 | >170 µM | 54 nmol | 68 nmol | – | – | –
N#C/N=C(\NCc1ccccc1)NCc1ccc(Cl)nc1 | – | 150 µM | 66 nmol | >66 nmol | – | – | –
CCN/C(=N\C#N)N(C)Cc1ccc(Cl)nc1 | 1.02 | >160 µM | 40 nmol | 26 nmol | – | – | –
CN(Cc1ccc(Cl)nc1)/C(=N/C#N)NCc1ccccc1 | 1.32 | 150 µM | 6.3 nmol | 81 nmol | 8.1 nmol | 25 nmol | –
CS/C(=N\C#N)N(C)Cc1ccc(Cl)nc1 | 1.4 | 6 µM | 2.5 nmol | 160 nmol | 6.3 nmol | 71 nmol | –
CN(C)/C(=N\C#N)N(C)Cc1ccc(Cl)nc1 | 0.66 | >400 µM | 20 nmol | 320 nmol | 32 nmol | 200 nmol | –
CS/C(=N\C#N)NCc1ccc(Cl)nc1 | 1.27 | 1.7 µM | 0.66 nmol | >83 nmol | 0.83 nmol | 21 nmol | –
N#C/N=C1\SCCN1Cc1ccc(Cl)nc1 [THIACLOPRID] | 1.2 | 2.6 µM | 0.21 nmol | 21 nmol | 0.46 nmol | 5.9 nmol | –
